Measured values taken from PMC7311426, “An amphipathic peptide with antibiotic activity against multidrug-resistant Gram-negative bacteria” (Nature Communications, 2020).
Converted amounts (≈) assume the structure as drawn. Where two headings read alike, the source gives them in different places.

Columns and labels:
Test in all cases: microbe, parasite or virus in culture
P. aeruginosa = conditions: Pseudomonas aeruginosa
Outline: (§1)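 MICs were scored by eye after 18-20 h static incubation at 37 °C, with bacteria at 5 × 10^5 CFU mL^−1 in MHB. Peptides were serially diluted 2-fold over 12 points, top 128 or 64 μg mL^−1. CAMHB (CLSI) and 1% agarose-MHB variants were also run, at least six replicates.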

K. pneumoniae = conditions: Klebsiella pneumoniae
Outline: as §1

S. enterica Typhi = conditions: Salmonella enterica, ATCC14028 / TYPHI, read-out: BMD MIC
Outline: as §1

[1] = system: A. baumannii clinical isolates
Outline: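 MIC90 from CLSI broth microdilution (M07-A9) in two clinical-isolate panels. US panel (331 isolates, 2010-2012): AA139 diluted in 0.01% acetic acid/0.1% BSA. Worldwide panel (445 isolates, 2011-2013, four regions): CAMHB, with 0.002% Tween 80 added for AA139 and polymyxin B.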

[2] = A. baumannii, worldwide isolates 2011-2013, n = 108

Structure (SMILES): C[C@@H](O)[C@H]1C(=O)N2C(C(=O)O)=C(S[C@@H]3CN[C@H](C(=O)N(C)C)C3)[C@H](C)[C@H]12 [Meropenem, meropenem, reference compound]
- MIC (P. aeruginosa; read-out: MIC, broth microdilution, P. aeruginosa UNT 138-1 spontaneous mutant, AA139 selection 4X, plate 1, colony 7, drug-free passage 5): 0.12 µg/mL (≈ 0.313 µM)
- MIC (P. aeruginosa; read-out: MIC, broth microdilution, P. aeruginosa UNT 138-1 spontaneous mutant, AA139 selection 4X, plate 2, colony 1, drug-free passage 1): 0.06 µg/mL (≈ 0.156 µM)
- MIC (P. aeruginosa; read-out: MIC, broth microdilution, P. aeruginosa UNT 138-1 spontaneous mutant, AA139 selection 4X, plate 2, colony 1, drug-free passage 5): 0.06 µg/mL (≈ 0.156 µM)
- MIC (P. aeruginosa; read-out: MIC, broth microdilution, P. aeruginosa UNT 138-1 spontaneous mutant, AA139 selection 4X, plate 2, colony 2, drug-free passage 1): 0.25 µg/mL (≈ 0.652 µM)
- MIC (P. aeruginosa; read-out: MIC, broth microdilution, P. aeruginosa UNT 138-1 spontaneous mutant, AA139 selection 4X, plate 2, colony 2, drug-free passage 5): 0.12 µg/mL (≈ 0.313 µM)
- MIC (P. aeruginosa; read-out: MIC, broth microdilution, P. aeruginosa UNT 138-1 spontaneous mutant, AA139 selection 4X, plate 2, colony 3, drug-free passage 1): 0.12 µg/mL (≈ 0.313 µM)
- MIC (P. aeruginosa; read-out: MIC, broth microdilution, P. aeruginosa UNT 138-1 spontaneous mutant, AA139 selection 4X, plate 2, colony 3, drug-free passage 5): 0.12 µg/mL (≈ 0.313 µM)
- MIC (P. aeruginosa; read-out: MIC, broth microdilution, P. aeruginosa UNT 138-1 spontaneous mutant, AA139 selection 4X, plate 2, colony 4, drug-free passage 1): 0.12 µg/mL (≈ 0.313 µM)
- MIC (P. aeruginosa; read-out: MIC, broth microdilution, P. aeruginosa UNT 138-1 spontaneous mutant, AA139 selection 4X, plate 2, colony 4, drug-free passage 5): 0.12 µg/mL (≈ 0.313 µM)
- MIC (P. aeruginosa; read-out: MIC, broth microdilution, P. aeruginosa UNT 138-1 spontaneous mutant, AA139 selection 4X, plate 2, colony 5, drug-free passage 1): 0.5 µg/mL (≈ 1.3 µM)
- MIC (P. aeruginosa; read-out: MIC, broth microdilution, P. aeruginosa UNT 138-1 spontaneous mutant, AA139 selection 4X, plate 2, colony 5, drug-free passage 5): 0.12 µg/mL (≈ 0.313 µM)
- MIC (P. aeruginosa; read-out: MIC, broth microdilution, P. aeruginosa UNT 138-1 spontaneous mutant, AA139 selection 4X, plate 2, colony 6, drug-free passage 1): 0.5 µg/mL (≈ 1.3 µM)
- MIC (P. aeruginosa; read-out: MIC, broth microdilution, P. aeruginosa UNT 138-1 spontaneous mutant, AA139 selection 4X, plate 2, colony 6, drug-free passage 5): 0.12 µg/mL (≈ 0.313 µM)
- MIC (P. aeruginosa; read-out: MIC, broth microdilution, P. aeruginosa UNT 138-1 spontaneous mutant, AA139 selection 4X, plate 2, colony 7, drug-free passage 1): 0.06 µg/mL (≈ 0.156 µM)
- MIC (P. aeruginosa; read-out: MIC, broth microdilution, P. aeruginosa UNT 138-1 spontaneous mutant, AA139 selection 4X, plate 2, colony 7, drug-free passage 5): 0.12 µg/mL (≈ 0.313 µM)
- MIC (P. aeruginosa; read-out: MIC, broth microdilution, P. aeruginosa UNT 138-1 spontaneous mutant, AA139 selection 8X, plate 1, colony 1, drug-free passage 1): 0.06 µg/mL (≈ 0.156 µM)
- MIC (P. aeruginosa; read-out: MIC, broth microdilution, P. aeruginosa UNT 138-1 spontaneous mutant, AA139 selection 8X, plate 1, colony 1, drug-free passage 5): 0.06 µg/mL (≈ 0.156 µM)
- MIC (P. aeruginosa; read-out: MIC, broth microdilution, P. aeruginosa UNT 138-1 spontaneous mutant, AA139 selection 8X, plate 1, colony 2, drug-free passage 1): 0.06 µg/mL (≈ 0.156 µM)
- MIC (P. aeruginosa; read-out: MIC, broth microdilution, P. aeruginosa UNT 138-1 spontaneous mutant, AA139 selection 8X, plate 1, colony 2, drug-free passage 5): 0.12 µg/mL (≈ 0.313 µM)
- MIC (P. aeruginosa; read-out: MIC, broth microdilution, P. aeruginosa UNT 138-1 spontaneous mutant, AA139 selection 8X, plate 1, colony 3, drug-free passage 1): 0.12 µg/mL (≈ 0.313 µM)
- MIC (P. aeruginosa; read-out: MIC, broth microdilution, P. aeruginosa UNT 138-1 spontaneous mutant, AA139 selection 8X, plate 1, colony 3, drug-free passage 5): 0.12 µg/mL (≈ 0.313 µM)
- MIC (P. aeruginosa; read-out: MIC, broth microdilution, P. aeruginosa UNT 138-1 spontaneous mutant, AA139 selection 8X, plate 1, colony 4, drug-free passage 1): 0.12 µg/mL (≈ 0.313 µM)
- MIC (P. aeruginosa; read-out: MIC, broth microdilution, P. aeruginosa UNT 138-1 spontaneous mutant, AA139 selection 8X, plate 1, colony 4, drug-free passage 5): 0.12 µg/mL (≈ 0.313 µM)
- MIC (P. aeruginosa; read-out: MIC, broth microdilution, P. aeruginosa UNT 138-1 spontaneous mutant, AA139 selection 8X, plate 1, colony 5, drug-free passage 1): 0.06 µg/mL (≈ 0.156 µM)
- MIC (P. aeruginosa; read-out: MIC, broth microdilution, P. aeruginosa UNT 138-1 spontaneous mutant, AA139 selection 8X, plate 1, colony 5, drug-free passage 5): 0.06 µg/mL (≈ 0.156 µM)
- MIC (P. aeruginosa; read-out: MIC, broth microdilution, P. aeruginosa UNT 138-1 spontaneous mutant, AA139 selection 8X, plate 2, colony 1, drug-free passage 1): 0.06 µg/mL (≈ 0.156 µM)
- MIC (P. aeruginosa; read-out: MIC, broth microdilution, P. aeruginosa UNT 138-1 spontaneous mutant, AA139 selection 8X, plate 2, colony 1, drug-free passage 5): 0.12 µg/mL (≈ 0.313 µM)
- MIC (K. pneumoniae; ATCC13883, read-out: BMD MIC, K. pneumoniae ATCC 13883 type strain (polymyxin/colistin heteroresistant), MHB, mode of 6 replicates): ≤ 0.25 µg/mL
- MIC (K. pneumoniae; ATCC700603, read-out: BMD MIC, K. pneumoniae ATCC 700603 (K6), MDR, OXA-2/SHV-18, CAMHB, mode of 6 replicates): 0.06 µg/mL (≈ 0.156 µM)
- MIC (K. pneumoniae; ATCC700603, read-out: BMD MIC, K. pneumoniae ATCC 700603 (K6), MDR, OXA-2/SHV-18, MHB, mode of 6 replicates): ≤ 0.25 µg/mL
- MIC (K. pneumoniae; BAA2146, read-out: BMD MIC, K. pneumoniae BAA-2146, MDR, ESBL, NDM-1 pos, MHB, mode of 6 replicates): > 32 µg/mL
- MIC (K. pneumoniae; read-out: BMD MIC, K. pneumoniae Greece CI 8_GR_13, XDR, KPC-2, PmxR, MHB, mode of 6 replicates): > 32 µg/mL
- MIC (K. pneumoniae; read-out: MIC, broth microdilution, K. pneumoniae 3010 spontaneous mutant, AA139 selection 4X, plate 1, colony 1, drug-free passage 1): 0.03 µg/mL (≈ 0.0782 µM)
- MIC (K. pneumoniae; read-out: MIC, broth microdilution, K. pneumoniae 3010 spontaneous mutant, AA139 selection 4X, plate 1, colony 1, drug-free passage 5): 0.015 µg/mL (≈ 0.0391 µM)
- MIC (K. pneumoniae; read-out: MIC, broth microdilution, K. pneumoniae 3010 spontaneous mutant, AA139 selection 8X, plate 1, colony 1, drug-free passage 1): 0.03 µg/mL (≈ 0.0782 µM)
- MIC (K. pneumoniae; read-out: MIC, broth microdilution, K. pneumoniae 3010 spontaneous mutant, AA139 selection 8X, plate 1, colony 1, drug-free passage 5): 0.03 µg/mL (≈ 0.0782 µM)
- MIC (K. pneumoniae; read-out: MIC, broth microdilution, K. pneumoniae ST258 spontaneous mutant, AA139 selection 4X, plate 1, colony 1, drug-free passage 1): > 4 µg/mL
- MIC (K. pneumoniae; read-out: MIC, broth microdilution, K. pneumoniae ST258 spontaneous mutant, AA139 selection 4X, plate 1, colony 1, drug-free passage 5): > 4 µg/mL
- MIC (S. enterica Typhi): 0.125 µg/mL (≈ 0.326 µM)
- Number of isolates with MIC 0.125 (MIC frequency distribution) [1]: 4
- MIC50 [1, 2]: > 16 µg/mL
- MIC90 [1, 2]: > 16 µg/mL
- Number of isolates with MIC 0.03 (MIC frequency distribution) ([1]; A. baumannii, worldwide isolates 2011-2013, n = 108, count of isolates at MIC 0.03): 0
- Number of isolates with MIC 0.06 (MIC frequency distribution) ([1]; A. baumannii, worldwide isolates 2011-2013, n = 108, count of isolates at MIC 0.06): 1
- Number of isolates with MIC 0.25 (MIC frequency distribution) ([1]; A. baumannii, worldwide isolates 2011-2013, n = 108, count of isolates at MIC 0.25): 10
- Number of isolates with MIC 0.5 (MIC frequency distribution) ([1]; A. baumannii, worldwide isolates 2011-2013, n = 108, count of isolates at MIC 0.5): 2
- Number of isolates with MIC 1 (MIC frequency distribution) ([1]; A. baumannii, worldwide isolates 2011-2013, n = 108, count of isolates at MIC 1): 1
- Number of isolates with MIC 2 (MIC frequency distribution) ([1]; A. baumannii, worldwide isolates 2011-2013, n = 108, count of isolates at MIC 2): 3
- Number of isolates with MIC 4 (MIC frequency distribution) ([1]; A. baumannii, worldwide isolates 2011-2013, n = 108, count of isolates at MIC 4): 2
- Number of isolates with MIC 8 (MIC frequency distribution) ([1]; A. baumannii, worldwide isolates 2011-2013, n = 108, count of isolates at MIC 8): 2
- Number of isolates with MIC 16 (MIC frequency distribution) ([1]; A. baumannii, worldwide isolates 2011-2013, n = 108, count of isolates at MIC 16): 1
- Number of isolates with MIC 32 (MIC frequency distribution) ([1]; A. baumannii, worldwide isolates 2011-2013, n = 108, count of isolates at MIC 32): 0
- Number of isolates with MIC 64 (MIC frequency distribution) ([1]; A. baumannii, worldwide isolates 2011-2013, n = 108, count of isolates at MIC 64): 0
- Number of isolates with MIC 128 (MIC frequency distribution) ([1]; A. baumannii, worldwide isolates 2011-2013, n = 108, count of isolates at MIC 128): 0
- Number of isolates with MIC >16 (MIC frequency distribution) ([1]; A. baumannii, worldwide isolates 2011-2013, n = 108, count of isolates at MIC >16): 82
- Number of isolates with MIC >32 (MIC frequency distribution) ([1]; A. baumannii, worldwide isolates 2011-2013, n = 108, count of isolates at MIC >32): 0
- Number of isolates with MIC >128 (MIC frequency distribution) ([1]; A. baumannii, worldwide isolates 2011-2013, n = 108, count of isolates at MIC >128): 0
- Number of isolates with MIC ≤0.015 (MIC frequency distribution) ([1]; A. baumannii, worldwide isolates 2011-2013, n = 108, count of isolates at MIC ≤0.015): 0
- MIC90 ([1]; Acinetobacter baumannii): > 16 µg/mL
- MIC90 ([1]; US isolates 2010–2012, A. baumannii MDR, n = 19): >16 µg/mL
- MIC90 ([1]; US isolates 2010–2012, A. baumannii XDR, n = 31): >16 µg/mL
